Data taken from patent US20260242419A1, “A CYCLIC PEPTIDE FOR TRAPPING INTERLEUKIN-1 BETA” (Merck Sharp & Dohme LLC, priority 2023, published 2026).
Starred links: 1 amine or outer side, 2 acyl side, 3 side chain; linkers in the order of their positions; H or OH if unused. Non-standard residues stand in square brackets, D forms with d. Residues, ends and D or L forms follow the SMILES beside them. Phe(4-(cis-4-COOH-cHex)) = N[C@@H](Cc1ccc([C@H]2CC[C@@H](C(=O)O)CC2)cc1)C(=O)O; dPro(4R-(4-pyridylmethyl)) = O=C(O)[C@H]1C[C@@H](Cc2ccncc2)CN1; Trp(βS-Me,4-F) = C[C@@H](c1c[nH]c2cccc(F)c12)[C@H](N)C(=O)O; Bip(4'-COOH) = N[C@@H](Cc1ccc(-c2ccc(C(=O)O)cc2)cc1)C(=O)O; Ala(1-bicyclo(1.1.1)pentyl) = N[C@@H](CC12CC(C1)C2)C(=O)O; dPro(4R-Bzl(4-F)) = O=C(O)[C@H]1C[C@@H](Cc2ccc(F)cc2)CN1; Ala(pyrimidin-5-yl) = N[C@@H](Cc1cncnc1)C(=O)O; Phe(4-COOH) = N[C@@H](Cc1ccc(C(=O)O)cc1)C(=O)O; Pro(cis-4-F) = O=C(O)[C@@H]1C[C@H](F)CN1; X23 = O=C([C@H](Cc1ncccn1)N[*:1])[*:2]; 4Pal = N[C@@H](Cc1ccncc1)C(=O)O; d(αMeS) = C[C@@](N)(CO)C(=O)O; αMeS = C[C@](N)(CO)C(=O)O; Orn = NCCC[C@H](N)C(=O)O; Api = NC1(C(=O)O)CCNCC1; Dab = NCC[C@H](N)C(=O)O; Aib = CC(C)(N)C(=O)O

biological target: T1, IL-1β (Homo sapiens, UniProt P01584); experiment: IL-6 assay in MRC5 cells: inhibition of IL-1β induced IL-6 secretion (AlphaLISA); type: cell-based; conditions: inhibition of IL-1β induced IL-6 secretion in MRC5 cells; read-out: MRC5 IC50
T1 construct: purchased BioLegend 579404
T1 sequence (P01584 117-269): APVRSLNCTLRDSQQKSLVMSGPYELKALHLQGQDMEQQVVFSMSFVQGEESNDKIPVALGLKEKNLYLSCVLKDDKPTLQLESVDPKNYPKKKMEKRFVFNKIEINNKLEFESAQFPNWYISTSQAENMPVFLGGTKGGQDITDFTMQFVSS
Outline: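 Compound was pre-incubated 1 h at ambient temperature with recombinant human IL-1β at 2λ EC80 before adding human lung fibroblast MRC5 cells (3000/well) in EMEM with 0.025% BSA. After overnight culture at 37 °C, 5% CO2, secreted IL-6 in conditioned medium was measured by AlphaLISA; IC50 from 4-parameter logistic fits.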

| SMILES | IC50 |
| --- | --- |
| C[C@@H](c1c[nH]c2cccc(F)c12)[C@@H]1NC(=O)[C@@H]2C[C@H](F)CN2C(=O)CNC(=O)[C@H](Cc2ccc(C(=O)O)cc2)NC(=O)[C@H](Cc2ccncc2)NC(=O)[C@H](Cc2ccc(-c3ccc(C(=O)O)cc3)cc2)NC(=O)[C@H]2C[C@@H](Cc3ccncc3)CN2C(=O)CNC(=O)[C@H](CCCN)NC(=O)[C@H](CCC(N)=O)NC(=O)[C@H](Cc2cncnc2)NC(=O)C(C)(C)NC(=O)[C@H](Cc2c[nH]c3ccccc23)NC(=O)[C@H](CO)NC(=O)C(C)(C)NC1=O [Example 108] (cyclo([Bip(4'-COOH)][4Pal][Phe(4-COOH)]G[Pro(cis-4-F)][Trp(βS-Me,4-F)][Aib]SW[Aib][Ala(pyrimidin-5-yl)]Q[Orn]G[dPro(4R-(4-pyridylmethyl))])) | 0.024 nM |
| C[C@@H](c1c[nH]c2cccc(F)c12)[C@@H]1NC(=O)[C@@H]2C[C@H](F)CN2C(=O)CNC(=O)[C@H](Cc2ccc(C(=O)O)cc2)NC(=O)[C@H](CC23CC(C2)C3)NC(=O)[C@H](Cc2ccc(-c3ccc(C(=O)O)cc3)cc2)NC(=O)[C@H]2C[C@@H](Cc3ccncc3)CN2C(=O)CNC(=O)[C@H](CCCN)NC(=O)[C@H](CCC(N)=O)NC(=O)[C@H](Cc2cncnc2)NC(=O)C(C)(C)NC(=O)[C@H](Cc2c[nH]c3ccccc23)NC(=O)[C@H](CO)NC(=O)C(C)(C)NC1=O [Example 109] (cyclo([Bip(4'-COOH)][Ala(1-bicyclo(1.1.1)pentyl)][Phe(4-COOH)]G[Pro(cis-4-F)][Trp(βS-Me,4-F)][Aib]SW[Aib][Ala(pyrimidin-5-yl)]Q[Orn]G[dPro(4R-(4-pyridylmethyl))])) | 0.036 nM |
| C[C@@H](c1c[nH]c2cccc(F)c12)[C@@H]1NC(=O)[C@@H]2C[C@H](F)CN2C(=O)CNC(=O)[C@H](Cc2ccc(C(=O)O)cc2)NC(=O)[C@H](Cc2ccncc2)NC(=O)[C@H](Cc2ccc(-c3ccc(C(=O)O)cc3)cc2)NC(=O)[C@H]2C[C@@H](Cc3ccncc3)CN2C(=O)CNC(=O)[C@H](CCN)NC(=O)[C@H](CCC(N)=O)NC(=O)[C@H](Cc2cncnc2)NC(=O)[C@@](C)(CO)NC(=O)[C@H](Cc2c[nH]c3ccccc23)NC(=O)[C@H](CO)NC(=O)C(C)(C)NC1=O [Example 111] (cyclo([Bip(4'-COOH)][4Pal][Phe(4-COOH)]G[Pro(cis-4-F)][Trp(βS-Me,4-F)][Aib]SW[d(αMeS)][Ala(pyrimidin-5-yl)]Q[Dab]G[dPro(4R-(4-pyridylmethyl))])) | 0.019 nM |
| C[C@@H](c1c[nH]c2cccc(F)c12)[C@@H]1NC(=O)[C@@H]2C[C@H](F)CN2C(=O)CNC(=O)[C@H](Cc2ccc(C(=O)O)cc2)NC(=O)[C@H](Cc2ccncc2)NC(=O)[C@H](Cc2ccc(-c3ccc(C(=O)O)cc3)cc2)NC(=O)[C@H]2C[C@@H](Cc3ccc(F)cc3)CN2C(=O)CNC(=O)[C@H](CCN)NC(=O)[C@H](CCC(N)=O)NC(=O)[C@H](Cc2ncccn2)NC(=O)C(C)(C)NC(=O)[C@H](Cc2c[nH]c3ccccc23)NC(=O)[C@H](CCC(=O)O)NC(=O)C(C)(C)NC1=O [Example 113] (cyclo([Bip(4'-COOH)][4Pal][Phe(4-COOH)]G[Pro(cis-4-F)][Trp(βS-Me,4-F)][Aib]EW[Aib][X23]Q[Dab]G[dPro(4R-Bzl(4-F))])) | 0.018 nM |

Results, then the compound that gave them:

| IC50 | SMILES |
| --- | --- |
| 0.083 nM | C[C@@H](c1c[nH]c2cccc(F)c12)[C@@H]1NC(=O)[C@@H]2C[C@H](F)CN2C(=O)CNC(=O)[C@H](Cc2ccc(C(=O)O)cc2)NC(=O)[C@H](CC23CC(C2)C3)NC(=O)[C@H](Cc2ccc([C@H]3CC[C@@H](C(=O)O)CC3)cc2)NC(=O)[C@H]2C[C@@H](Cc3ccc(F)cc3)CN2C(=O)CNC(=O)[C@H](CCN)NC(=O)[C@H](CCC(N)=O)NC(=O)[C@H](CO)NC(=O)C2(CCNCC2)NC(=O)[C@H](Cc2c[nH]c3ccccc23)NC(=O)[C@H](CCC(=O)O)NC(=O)C(C)(C)NC1=O [Example 105] (cyclo([Phe(4-(cis-4-COOH-cHex))][Ala(1-bicyclo(1.1.1)pentyl)][Phe(4-COOH)]G[Pro(cis-4-F)][Trp(βS-Me,4-F)][Aib]EW[Api]SQ[Dab]G[dPro(4R-Bzl(4-F))])) |
| 0.031 nM | C[C@@H](c1c[nH]c2cccc(F)c12)[C@@H]1NC(=O)[C@@H]2C[C@H](F)CN2C(=O)CNC(=O)[C@H](Cc2ccc(C(=O)O)cc2)NC(=O)[C@H](CC23CC(C2)C3)NC(=O)[C@H](Cc2ccc([C@H]3CC[C@@H](C(=O)O)CC3)cc2)NC(=O)[C@H]2C[C@@H](Cc3ccc(F)cc3)CN2C(=O)CNC(=O)[C@H](CCN)NC(=O)[C@H](CCC(N)=O)NC(=O)[C@H](CO)NC(=O)C(C)(C)NC(=O)[C@H](Cc2c[nH]c3ccccc23)NC(=O)[C@H](CO)NC(=O)C(C)(C)NC1=O [Example 106] (cyclo([Phe(4-(cis-4-COOH-cHex))][Ala(1-bicyclo(1.1.1)pentyl)][Phe(4-COOH)]G[Pro(cis-4-F)][Trp(βS-Me,4-F)][Aib]SW[Aib]SQ[Dab]G[dPro(4R-Bzl(4-F))])) |
| 0.063 nM | C[C@@H](c1c[nH]c2cccc(F)c12)[C@@H]1NC(=O)[C@@H]2C[C@H](F)CN2C(=O)CNC(=O)[C@H](Cc2ccc(C(=O)O)cc2)NC(=O)[C@H](CC23CC(C2)C3)NC(=O)[C@H](Cc2ccc([C@H]3CC[C@@H](C(=O)O)CC3)cc2)NC(=O)[C@H]2C[C@@H](Cc3ccc(F)cc3)CN2C(=O)CNC(=O)[C@H](CCN)NC(=O)[C@H](CCC(N)=O)NC(=O)[C@H](CO)NC(=O)C(C)(C)NC(=O)[C@H](Cc2c[nH]c3ccccc23)NC(=O)[C@H](CCC(=O)O)NC(=O)[C@](C)(CO)NC1=O [Example 107] (cyclo([Phe(4-(cis-4-COOH-cHex))][Ala(1-bicyclo(1.1.1)pentyl)][Phe(4-COOH)]G[Pro(cis-4-F)][Trp(βS-Me,4-F)][αMeS]EW[Aib]SQ[Dab]G[dPro(4R-Bzl(4-F))])) |
| 0.038 nM | C[C@@H](c1c[nH]c2cccc(F)c12)[C@@H]1NC(=O)[C@@H]2C[C@H](F)CN2C(=O)CNC(=O)[C@H](Cc2ccc(C(=O)O)cc2)NC(=O)[C@H](CC23CC(C2)C3)NC(=O)[C@H](Cc2ccc(-c3ccc(C(=O)O)cc3)cc2)NC(=O)[C@H]2C[C@@H](Cc3ccc(F)cc3)CN2C(=O)CNC(=O)[C@H](CCN)NC(=O)[C@H](CCC(N)=O)NC(=O)[C@H](CCCN)NC(=O)C(C)(C)NC(=O)[C@H](Cc2c[nH]c3ccccc23)NC(=O)[C@H](CO)NC(=O)C(C)(C)NC1=O [Example 110] (cyclo([Bip(4'-COOH)][Ala(1-bicyclo(1.1.1)pentyl)][Phe(4-COOH)]G[Pro(cis-4-F)][Trp(βS-Me,4-F)][Aib]SW[Aib][Orn]Q[Dab]G[dPro(4R-Bzl(4-F))])) |
| 0.018 nM | C[C@@H](c1c[nH]c2cccc(F)c12)[C@@H]1NC(=O)[C@@H]2C[C@H](F)CN2C(=O)CNC(=O)[C@H](Cc2ccc(C(=O)O)cc2)NC(=O)[C@H](CC23CC(C2)C3)NC(=O)[C@H](Cc2ccc(-c3ccc(C(=O)O)cc3)cc2)NC(=O)[C@H]2C[C@@H](Cc3ccncc3)CN2C(=O)CNC(=O)[C@H](CCN)NC(=O)[C@H](CCC(N)=O)NC(=O)[C@H](Cc2cncnc2)NC(=O)[C@@](C)(CO)NC(=O)[C@H](Cc2c[nH]c3ccccc23)NC(=O)[C@H](CO)NC(=O)C(C)(C)NC1=O [Example 112] (cyclo([Bip(4'-COOH)][Ala(1-bicyclo(1.1.1)pentyl)][Phe(4-COOH)]G[Pro(cis-4-F)][Trp(βS-Me,4-F)][Aib]SW[d(αMeS)][Ala(pyrimidin-5-yl)]Q[Dab]G[dPro(4R-(4-pyridylmethyl))])) |
